Where a name gives a salt, the structure may show the parent alone. Read-outs that look alike come from different tables or passages of the source.
Legend:
human OX1 receptor = molecular target: T1, human OX1 receptor (Homo sapiens, UniProt O43613); test: Measurement of orexin receptor antagonistic activity (calcium fluorescence, FLIPRtetra); type: cell-based; settings: CHO, read-out: Human Orexin1 receptor inhibition (at 10 μM)
T1 construct: expressed in transfected cells; host or cells: CHO cells
T1 sequence (O43613 1-425): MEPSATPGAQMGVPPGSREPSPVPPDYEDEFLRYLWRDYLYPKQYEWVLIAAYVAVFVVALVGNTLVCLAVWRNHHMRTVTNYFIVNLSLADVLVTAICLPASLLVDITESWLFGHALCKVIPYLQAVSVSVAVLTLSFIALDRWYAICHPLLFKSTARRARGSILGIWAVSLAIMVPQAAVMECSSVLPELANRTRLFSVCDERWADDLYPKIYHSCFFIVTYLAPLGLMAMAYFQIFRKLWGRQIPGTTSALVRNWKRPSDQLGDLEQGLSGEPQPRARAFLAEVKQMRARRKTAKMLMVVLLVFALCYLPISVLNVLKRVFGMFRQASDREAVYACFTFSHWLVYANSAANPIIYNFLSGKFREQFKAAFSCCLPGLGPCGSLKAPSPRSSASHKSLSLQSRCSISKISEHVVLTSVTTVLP
Description: (§1) Measurement of Orexin Receptor Antagonistic Activity
(§2) CHO cells forcibly expressing human OX1 receptor or human OX2 receptor were seeded in each well of 384 well black transparent bottom plate (BD Falcon) at 7,500 cells/well, and cultured for one day in a 5% CO2 incubator at 37° C. […] The plate was stood for 30 min in a 5% CO2 incubator at 37° C., and further stood at room temperature for 30 min. A test compound prepared by diluting with assay buffer B (HBSS, 20 mM HEPES, 0.1% BSA) was added at 10 μL/well, and then OX-A (OX1 receptor, final concentration; 1 nM) or OX-A (OX2 receptor, final concentration; 0.3 nM) was added at 10 μL/well, and the fluorescence value was measured by FLIPRtetra (Molecular Devices) every one sec for 2 min.

human OX2 receptor = molecular target: T2, human OX2 receptor (Homo sapiens, UniProt O43614); test: as above; type: cell-based; settings: CHO, read-out: Human Orexin2 receptor inhibition (at 10 μM)
T2 construct: expressed in transfected cells; host or cells: CHO cells
T2 sequence (O43614 1-444): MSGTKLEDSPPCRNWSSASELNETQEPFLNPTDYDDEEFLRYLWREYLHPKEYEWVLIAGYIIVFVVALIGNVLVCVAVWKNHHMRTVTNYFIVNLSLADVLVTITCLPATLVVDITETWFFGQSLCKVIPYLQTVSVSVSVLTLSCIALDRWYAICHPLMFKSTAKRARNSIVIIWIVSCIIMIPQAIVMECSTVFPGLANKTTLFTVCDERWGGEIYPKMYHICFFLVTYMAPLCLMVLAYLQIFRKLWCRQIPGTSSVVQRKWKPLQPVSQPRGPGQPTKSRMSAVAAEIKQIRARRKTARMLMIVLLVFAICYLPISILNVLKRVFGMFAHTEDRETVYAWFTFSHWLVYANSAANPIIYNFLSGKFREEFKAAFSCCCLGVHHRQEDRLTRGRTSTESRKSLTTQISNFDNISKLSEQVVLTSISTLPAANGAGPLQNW
Description: as §1, §2

[1] = 10 μM test compound, CHO cells expressing human OX1 receptor, OX-A 1 nM
[2] = 10 μM test compound, CHO cells expressing human OX2 receptor, OX-A 0.3 nM

| Compound | inhibition at 10 µM (human OX1 receptor; [1]) | inhibition at 10 µM (human OX2 receptor; [2]) | inhibition at 10 µM (human OX1 receptor) | inhibition at 10 µM (human OX2 receptor) |
| --- | --- | --- | --- | --- |
| Cc1cc(N2CCN(C(=O)c3ccccc3-n3ncnn3)CCO2)nc(C)n1 [Example 31, (2-(2,6-dimethyl-pyrimidin-4-yl)-1,2,5-oxadiazepan-5-yl) (2-(2H-tetrazol-2-yl)phenyl) methanone] | -2% | 100% |  |  |
| Cc1cc(N2CCN(C(=O)c3ccccc3-c3cncs3)CCO2)nc(C)n1 [Example 32, (2-(2,6-dimethyl-pyrimidin-4-yl)-1,2,5-oxadiazepan-5-yl) (2-(1,3-thiazol-5-yl)phenyl) methanone] | 38% | 96% |  |  |
| Cc1ccc(-n2nccn2)c(C(=O)N2CCON(c3cccc(C)n3)CC2)c1 [Example 33, (2-(6-methylpyridin-2-yl)-1,2,5-oxadiazepan-5-yl)(5-methyl-2-(2H-1,2,3-triazol-2-yl)phenyl)methanone] | 44% | 99% |  |  |
| Cc1cc(C)nc(N2CCN(C(=O)c3cc(C)ccc3-n3nccn3)CCO2)c1 [Example 34, (2-(4,6-dimethylpyridin-2-yl)-1,2,5-oxadiazepan-5-yl)(5-methyl-2-(2H-1,2,3-triazol-2-yl)phenyl)methanone] | 97% | 99% |  |  |
| Cc1ccc(-n2nccn2)c(C(=O)N2CCON(c3cc(C)nc(C)c3)CC2)c1 [Example 35, (2-(2,6-dimethylpyridin-4-yl)-1,2,5-oxadiazepan-5-yl)(5-methyl-2-(2H-1,2,3-triazol-2-yl)phenyl)methanone] | -4% | 5% |  |  |
| COc1cccc(N2CCN(C(=O)c3ccccc3-c3nccs3)CCO2)n1 [Example 36, (2-(6-methoxypyridin-2-yl)-1,2,5-oxadiazepan-5-yl)(2-(1,3-thiazol-2-yl)phenyl)methanone] | 67% | 100% |  |  |
| COc1cc(N2CCN(C(=O)c3ccccc3-c3nccs3)CCO2)ccn1 [Example 37, (2-(2-methoxypyridin-4-yl)-1,2,5-oxadiazepan-5-yl)(2-(1,3-thiazol-2-yl)phenyl)methanone] | 19% | 85% |  |  |
| Cc1ccc(-n2nccn2)c(C(=O)N2CCON(c3ncc4ccccc4n3)CC2)c1 [Example 38, (5-methyl-2-(2H-1,2,3-triazol-2-yl)phenyl)(2-(quinazolin-2-yl)-1,2,5-oxadiazepan-5-yl)methanone] | 92% | 90% |  |  |
| Cc1ccc(-n2nccn2)c(C(=O)N2CCON(c3nc4ccc(Cl)cc4o3)CC2)c1 [Example 39, (2-(6-chloro-1,3-benzoxazol-2-yl)-1,2,5-oxadiazepan-5-yl)(5-methyl-2-(2H-1,2,3-triazol-2-yl)phenyl)methanone] | 100% | 98% |  |  |
| Cc1cc(N2CCN(C(=O)c3cc(C4CCC4)ccc3-n3nccn3)CCO2)nc(C)n1 [Example 41, (5-cyclobutyl-2-(2H-1,2,3-triazol-2-yl)phenyl)(2-(2,6-dimethylpyrimidin-4-yl)-1,2,5-oxadiazepan-5-yl)methanone] | 10% | 56% |  |  |
| Cc1cc(N2CCN(C(=O)c3ccccc3-c3ncccn3)CCO2)nc(C)n1 [Example 42, (2-(2,6-dimethylpyrimidin-4-yl)-1,2,5-oxadiazepan-5-yl)(2-(pyrimidin-2-yl)phenyl)methanone] | 41% | 101% |  |  |
| Cc1cc(N2CCN(C(=O)c3ccccc3-c3ccccn3)CCO2)nc(C)n1 [Example 43, (2-(2,6-dimethylpyrimidin-4-yl)-1,2,5-oxadiazepan-5-yl)(2-(pyridin-2-yl)phenyl)methanone hydrochloride] | 35% | 91% |  |  |
| Cc1cc(N2CCN(C(=O)c3cc(C#N)ccc3-n3nccn3)CCO2)nc(C)n1 [Example 44, 3-((2-(2,6-dimethylpyrimidin-4-yl)-1,2,5-oxadiazepan-5-yl)carbonyl)-4-(2H-1,2,3-triazol-2-yl)benzonitrile] | -16% | 103% |  |  |
| Cc1cc(C)nc(N2CCN(C(=O)c3ccccc3C#N)CCO2)n1 [Example 45, 2-((2-(4,6-dimethylpyrimidin-2-yl)-1,2,5-oxadiazepan-5-yl)carbonyl)benzonitrile] | 16% | 19% |  |  |
| Cc1cc(C)nc(N2CCN(C(=O)c3ccccc3)CCO2)n1 [Example 46, (2-(4,6-dimethylpyrimidin-2-yl)-1,2,5-oxadiazepan-5-yl) (phenyl)methanone] | 4% | 36% |  |  |
| COc1cccc(OC)c1C(=O)N1CCON(c2nc(C)cc(C)n2)CC1 [Example 47, (2,6-dimethoxyphenyl) (2-(4,6-dimethylpyrimidin-2-yl)-1,2,5-oxadiazepan-5-yl)methanone] | 23% | 97% |  |  |
| COc1cccc(F)c1C(=O)N1CCON(c2nc(C)cc(C)n2)CC1 [Example 48, (2-(4,6-dimethylpyrimidin-2-yl)-1,2,5-oxadiazepan-5-yl) (2-fluoro-6-methoxyphenyl) methanone] | 10% | 73% |  |  |
| Cc1cc(C)nc(N2CCN(C(=O)c3cccc(C#N)c3)CCO2)n1 [Example 49, 3-((2-(4,6-dimethylpyrimidin-2-yl)-1,2,5-oxadiazepan-5-yl)carbonyl) benzonitrile] | 9% | 14% |  |  |
| Cc1cc(C)nc(N2CCN(C(=O)c3ccc(C#N)cc3)CCO2)n1 [Example 50, 4-((2-(4,6-dimethylpyrimidin-2-yl)-1,2,5-oxadiazepan-5-yl)carbonyl) benzonitrile] | 3% | -3% |  |  |
| COc1ccccc1C(=O)N1CCON(c2nc(C)cc(C)n2)CC1 [Example 51] | 22% | 68% |  |  |
| COc1ccc(Cl)c(C(=O)N2CCON(c3nc(C)cc(C)n3)CC2)c1 [Example 52, (2-chloro-5-methoxyphenyl) (2-(4,6-dimethylpyrimidin-2-yl)-1,2,5-oxadiazepan-5-yl)methanone] | 16% | 96% |  |  |
| Cc1cc(C)nc(N2CCN(C(=O)c3ccccc3Cl)CCO2)n1 [Example 53, (2-chlorophenyl) (2-(4,6-dimethylpyrimidin-2-yl)-1,2,5-oxadiazepan-5-yl)methanone] | 9% | 57% |  |  |
| Cc1cc(C)nc(N2CCN(C(=O)c3cc(Cl)ccc3Cl)CCO2)n1 [Example 54, (2,5-dichlorophenyl) (2-(4,6-dimethylpyrimidin-2-yl)-1,2,5-oxadiazepan-5-yl)methanone] | 16% | 84% |  |  |
| Cc1cc(C)nc(N2CCN(C(=O)c3cccc(Cl)c3Cl)CCO2)n1 [Example 55, (2,3-dichlorophenyl) (2-(4,6-dimethylpyrimidin-2-yl)-1,2,5-oxadiazepan-5-yl)methanone] | 18% | 96% |  |  |
| Cc1cc(C)nc(N2CCN(C(=O)c3cc(Cl)cc(Cl)c3)CCO2)n1 [Example 56, (3,5-dichlorophenyl) (2-(4,6-dimethylpyrimidin-2-yl)-1,2,5-oxadiazepan-5-yl)methanone] | 21% | 96% |  |  |
| Cc1cc(C)nc(N2CCN(C(=O)c3ccccc3C)CCO2)n1 [Example 57, (2-(4,6-dimethylpyrimidin-2-yl)-1,2,5-oxadiazepan-5-yl) (2-methylphenyl)methanone] |  |  | 10% | 58% |
| COc1ccc(Cl)cc1C(=O)N1CCON(c2nc(C)cc(C)n2)CC1 [Example 58, (5-chloro-2-methoxyphenyl) (2-(4,6-dimethylpyrimidin-2-yl)-1,2,5-oxadiazepan-5-yl)methanone] |  |  | 29% | 99% |
| Cc1cc(C)nc(N2CCN(C(=O)c3ccc(Cl)cc3Cl)CCO2)n1 [Example 59, (2,4-dichlorophenyl) (2-(4,6-dimethylpyrimidin-2-yl)-1,2,5-oxadiazepan-5-yl)methanone] |  |  | 1% | 65% |

Source: patent publication US10131653B2, “Heterocyclic compound” (TAKEDA PHARMACEUTICAL COMPANY LIMITED, priority 2015, dated 2018)
